Laboratory results taken from PMC9917201, “Enhanced Antibacterial Activity of Substituted Derivatives of NCR169C Peptide” (International Journal of Molecular Sciences, 2023).
Non-standard residues stand in square brackets, D forms with d. Residues, ends and D or L forms follow the SMILES beside them. ξ: configuration not given here. ξTrp(5-Me) = Cc1ccc2[nH]cc(CC(N)C(=O)O)c2c1; ξTrp(6-F) = NC(Cc1c[nH]c2cc(F)ccc12)C(=O)O

Experiments:
S. aureus (ATCC 25923) = type: cell-based, Staphylococcus aureus; conditions: ATCC 25923, 3 h, pH 7.4
Text: (§1) The bacterial strains for the antimicrobial assay were obtained from the ATCC (American Type Culture Collection, Manassas, VA, USA) and NCTC (National Collection of Type Cultures, Salisbury, UK). Gram-negative strains were Pseudomonas aeruginosa (ATCC 27853), Escherichia coli (ATCC 8739, ATCC 35218, and ATCC 25922), Salmonella enterica (ATCC 13076), Klebsiella pneumoniae (NCTC 13440), Acinetobacter baumannii (ATCC 17978) and the Gram-positive strains were Enterococcus faecalis (ATCC 29212), Listeria monocytogenes (ATCC 19111), and Staphylococcus aureus (HNCMO112011 and ATCC 25923).
(§2) Determination of antibacterial activity for the peptides was carried out by utilizing a minimum bactericidal concentration (MBC) bioassay. Synthesized peptides were dissolved in sterile water and used from 25 to 0.125 μM in 2-fold dilution series and incubated with ~10^7 log phase bacteria in Potassium-Phosphate Buffer (PPB, pH: 7.4) for three hours as described earlier. After that, 5 μl of each sample was placed on LB agar and the growth of bacteria was monitored after overnight incubation at 37 °C. The lowest concentration of the antimicrobial agents that completely eliminated viable bacteria was considered the minimal bactericidal concentration (MBC).

[1] = system: Klebsiella pneumoniae (NCTC 13440); type: cell-based; conditions: NCTC 13440, 3 h, pH 7.4
Text: as §1, §2

[2] = system: Salmonella enterica (ATCC 13076); type: cell-based; conditions: ATCC 13076, 3 h, pH 7.4
Text: as §1, §2

[3] = system: Listeria monocytogenes (ATCC 19111); type: cell-based; conditions: ATCC 19111, 3 h, pH 7.4
Text: as §1, §2

[4] = system: Pseudomonas aeruginosa (ATCC 27853); type: cell-based; conditions: ATCC 27853, 3 h, pH 7.4
Text: as §1, §2

[5] = system: Staphylococcus aureus (HNCMO112011); type: cell-based; conditions: HNCMO112011, 3 h, pH 7.4
Text: as §1, §2

[6] = system: Enterococcus faecalis (ATCC 29212); type: cell-based; conditions: ATCC 29212, 3 h, pH 7.4
Text: as §1, §2

[7] = system: Acinetobacter baumannii (ATCC 17978); type: cell-based; conditions: ATCC 17978, 3 h, pH 7.4
Text: as §1, §2

[8] = system: Escherichia coli (ATCC 8739); type: cell-based; conditions: ATCC 8739, 3 h, pH 7.4
Text: as §1, §2

E. coli (ATCC 35218) = type: cell-based, Escherichia coli; conditions: ATCC 35218, 3 h, pH 7.4
Text: as §1, §2

E. coli (ATCC 25922) = type: cell-based, Escherichia coli; conditions: ATCC 25922, 3 h, pH 7.4
Text: as §1, §2

[9] = system: tested bacteria (ESKAPE pathogens, Listeria monocytogenes, Salmonella enterica); type: cell-based; conditions: 3 h, pH 7.4
Text: as §1, §2

CC[C@H](C)[C@H](NC(=O)[C@H](CCCCN)NC(=O)[C@H](Cc1ccccc1)NC(=O)[C@H](CC(C)C)NC(=O)[C@@H]1CCCN1C(=O)[C@H](CCCCN)NC(=O)[C@H](CCCCN)NC(=O)[C@H](CO)NC(=O)[C@@H](N)CCCCN)C(=O)N[C@@H](Cc1c[nH]c2ccccc12)C(=O)N[C@@H](CCCCN)C(=O)N[C@@H](CO)C(=O)N[C@H](C(=O)N[C@@H](CCC(=O)O)C(=O)N[C@@H](CC(N)=O)C(=O)N[C@H](C(=O)N[C@@H](CO)C(=O)N[C@H](C(=O)N[C@@H](CC(C)C)C(=O)N[C@@H](Cc1c[nH]c2ccccc12)C(=O)N[C@@H](Cc1ccc(O)cc1)C(=O)N[C@@H](CCCCN)C(N)=O)C(C)C)C(C)C)C(C)C [NCR169C17–38C12,17/S] (H-KSKKPLFKIWKSVENVSVLWYK-NH2)
1.6 µM: Minimal bactericidal concentration (MBC) S. e. [2] | Minimal bactericidal concentration (MBC) S. a. [5] | Minimal bactericidal concentration (MBC) A. b. [7] | Minimal bactericidal concentration (MBC) E. c. [8] | MBC E.c. ATTC 25922 (E. coli (ATCC 25922))
3.1 µM: MBC S.a. ATTC 25923 (S. aureus (ATCC 25923)) | Minimal bactericidal concentration (MBC) K. p. [1] | Minimal bactericidal concentration (MBC) L. m. [3] | Minimal bactericidal concentration (MBC) P. a. [4] | Minimal bactericidal concentration (MBC) E. f. [6] | MBC E.c. ATTC 35218 (E. coli (ATCC 35218))

CC[C@H](C)[C@H](NC(=O)[C@H](CCCCN)NC(=O)[C@H](Cc1ccccc1)NC(=O)[C@H](CC(C)C)NC(=O)[C@@H]1CCCN1C(=O)[C@H](CCCCN)NC(=O)[C@H](CCCCN)NC(=O)[C@H](CO)NC(=O)[C@@H](N)CCCCN)C(=O)NC(Cc1c[nH]c2cc(F)ccc12)C(=O)N[C@@H](CCCCN)C(=O)N[C@@H](CO)C(=O)N[C@H](C(=O)N[C@@H](CCC(=O)O)C(=O)N[C@@H](CC(N)=O)C(=O)N[C@H](C(=O)N[C@@H](CO)C(=O)N[C@H](C(=O)N[C@@H](CC(C)C)C(=O)N[C@@H](Cc1c[nH]c2ccccc12)C(=O)N[C@@H](Cc1ccc(O)cc1)C(=O)N[C@@H](CCCCN)C(N)=O)C(C)C)C(C)C)C(C)C (some centres unmarked) [NCR169C17–38C12,17/S-10W^6-F II] (H-KSKKPLFKI[ξTrp(6-F)]KSVENVSVLWYK-NH2; N-terminus assumed)
6.3 µM: Minimal bactericidal concentration (MBC) S. e. [2]
1.6 µM: MBC S.a. ATTC 25923 (S. aureus (ATCC 25923)) | Minimal bactericidal concentration (MBC) K. p. [1] | Minimal bactericidal concentration (MBC) L. m. [3] | Minimal bactericidal concentration (MBC) P. a. [4]
0.8 to 1.6 µM: MBC against most or all of the tested bacteria [9]
0.8 µM: Minimal bactericidal concentration (MBC) S. a. [5] | Minimal bactericidal concentration (MBC) E. f. [6] | Minimal bactericidal concentration (MBC) A. b. [7] | Minimal bactericidal concentration (MBC) E. c. [8] | MBC E.c. ATTC 35218 (E. coli (ATCC 35218)) | MBC E.c. ATTC 25922 (E. coli (ATCC 25922))

CC[C@H](C)[C@H](NC(=O)[C@H](CCCCN)NC(=O)[C@H](Cc1ccccc1)NC(=O)[C@H](CC(C)C)NC(=O)[C@@H]1CCCN1C(=O)[C@H](CCCCN)NC(=O)[C@H](CCCCN)NC(=O)[C@H](CO)NC(=O)[C@@H](N)CCCCN)C(=O)N[C@@H](Cc1c[nH]c2ccccc12)C(=O)N[C@@H](CCCCN)C(=O)N[C@@H](CO)C(=O)N[C@H](C(=O)N[C@@H](CCC(=O)O)C(=O)N[C@@H](CC(N)=O)C(=O)N[C@H](C(=O)N[C@@H](CO)C(=O)N[C@H](C(=O)N[C@@H](CC(C)C)C(=O)NC(Cc1c[nH]c2ccc(C)cc12)C(=O)N[C@@H](Cc1ccc(O)cc1)C(=O)N[C@@H](CCCCN)C(N)=O)C(C)C)C(C)C)C(C)C (some centres unmarked) [NCR169C17–38C12,17/S-20W^5-Me I] (H-KSKKPLFKIWKSVENVSVL[ξTrp(5-Me)]YK-NH2; N-terminus assumed)
6.3 µM: Minimal bactericidal concentration (MBC) S. e. [2] | Minimal bactericidal concentration (MBC) L. m. [3] | Minimal bactericidal concentration (MBC) P. a. [4] | Minimal bactericidal concentration (MBC) S. a. [5] | Minimal bactericidal concentration (MBC) A. b. [7] | Minimal bactericidal concentration (MBC) E. c. [8]
12.5 µM: Minimal bactericidal concentration (MBC) K. p. [1] | Minimal bactericidal concentration (MBC) E. f. [6]
6.3 to 12.5 µM: MBC against most or all of the tested bacteria [9]
